Experimental data from US20120322843A1, “GENOTYPE SPECIFIC METHODS FOR TREATING HUMAN SUBJECTS USING 4-METHYLPYRAZOLE” (RAPTOR THERAPEUTICS INC., priority 2009, published 2012).
Values joined by “and” are separate entries in the source; they are usually repeats but may differ in a detail not shown here. Equal values may be shown once.

Tested on: human subjects with reduced or absent ALDH2 activity
Experiment: Blinded, intra-subject controlled, single dose study of oral 4-MP given before ethanol; serum acetaldehyde measured by HPLC/MS/MS and compared by ALDH2/ADH2 genotype
Assay type: in vivo
Method: A blinded, intra-subject controlled, single dose, dose escalation study of 4-MP for mitigation of acetaldehyde related toxicity in subjects with symptoms of inborn altered ethanol metabolism with concomitant ethanol exposure was undertaken.
Twenty-four subjects (n=24) were randomly selected and orally administered 1 mg/kg, 3 mg/kg, or 5 mg/kg of 4-MP, followed 30 minutes later by an oral dose of 20% ethanol ([…]).
Using the same protocol, wherein 4-MP was replaced with placebo, each of the twenty-four randomly selected subjects served as its own control.
The twenty-four randomly selected subjects were then subjected to blood sampling, and the sampled blood analyzed for acetaldehyde levels at select time points following ethanol consumption.
For acetaldehyde analysis, blood samples were prepared by dilution with an internal standard (acetaldehyde-d4), with derivatization of acetaldehyde with dinitrophenyl hydrazine in hydrochloric acid, liquid-liquid portioning and solvent exchange. The derivatization forms an acetaldehyde-dinitrophenyl hydrazine (DNPH) derivative which dramatically increases the boiling point of the molecule and thus its relative stability compared to the acetaldehyde itself (Nagy et al., Rapid Communications in Mass Spectrometry 2004, 18, 2473-2478). The derivatized analytes were separated using a Jones Chromatography (Grace-Vydac). 50 mm×2.1 mm, 3 μm column held in an oven set at 28° C. Two mobile phases were used in a gradient consisting of 30:70 acetonitrile:water versus 90:10 acetonitrile:water with 0.1% formic acid. The derivatized analyte was detected on a High Performance Liquid Chromatograph equipped with a Mass Spectrometer (HPLC/MS/MS). Quantitation was performed using a linear regression curve fit of impurities standards with 1/× weighting, prepared from dilutions of acetaldehyde in water. Samples and standards were injected at 2 μL.
All […] subjects were then genotyped for ALDH2 and ADH2 at the Alcohol Research Center at Indiana University using (i) genomic DNA isolation and (ii) TaqMan assay for allelic discrimination. • i. Genomic DNA isolation: DNA was first isolated using the “Hot:SHOT” method for isolating PCR quality genomic DNA (Truett et al., Biotechniques 2000, 29(1), 52, 54). Briefly, blood blotted on filter paper (3 mm circle) was placed in the well of a 96-well plate and mixed with 75 μL 25 mM NaOH/0.3 mM EDTA solution and heated to 95° C. for 40 minutes, followed by neutralization with 75 μL 40 mM Tris-HCl ([…]) solution. 1-5 microliters were used for each PCR. • ii. TaqMan Assay for Allelic Discrimination: The allelic discrimination assay used a multiplexed (more than one primer/probe pair per reaction), end-point (data is collected at the end of the PCR process) assay. Each assay mix contained two different TaqMan probes (Applied BioSystems, Foster City, Calif.), labeled with VIC or FAM fluorescent reporter dye, which bound preferentially to one of the alleles. The genotype of each sample was determined by the fluorescence levels of the reporter dyes and was clustered on a graph with other samples of the same genotype. Each reaction contained 5 μL of 2×TaqMan Universal PCR Mastermix, No AmpErase UNG, 3.75 μL of water, 0.25 μL, of 40× Assay Mix, and 1 μL of DNA sample. Eight or eleven controls were included on each 96-well plate: two no template controls, two or three heterozygous samples, and two or three of each of the homozygous samples. Thermocycling was carried out in ND Research PTC-200 thermocyclers. The PCR products were then analyzed in an ABI PRISM® 7300 Sequence Detection System (SOS) instrument. SDS Software 1.3.1 converted the raw data to pure dye components and ploted the results of the allelic discrimination on a scatter plot of Allele X versus Allele Y (e.g. ADH2*1 versus ADH2*2); each genotype appeared on the graph as a cluster of points. […]

[1] = Groups A and D (reduced ALDH2 activity, ADH2*1/ADH2*1 or ADH2*1/ADH2*2), n=6, 1 mg/kg 4-MP oral, then ethanol
[2] = Groups A, B, D, F and G (reduced or absent ALDH2 activity), n=23, 1, 3 or 5 mg/kg 4-MP
[3] = Groups F and G (reduced or absent ALDH2 activity, ADH2*2/ADH2*2), n=6, 1 mg/kg 4-MP oral, then ethanol

Cc1cn[nH]c1 [4-MP, 4-methylpyrazole]
Acetaldehyde AUC0-8H mean [1]: 162 ± 18.7 µg·h/mL and 162 µg·h/mL | Cmax mean (serum acetaldehyde) [1]: 41.3 µg/mL | Peak mean acetaldehyde concentration in the blood (FIG. 2) (Groups A and D, 1 mg/kg 4-MP): can be reduced | Reduction in Cmax mean relative to placebo (Groups A and D, 1 mg/kg 4-MP): approximately 36% | Acetaldehyde AUC0-8H mean [2]: 182 µg·h/mL | Cmax mean (serum acetaldehyde) [2]: 64.2 µg/mL | Peak mean acetaldehyde concentration in the blood (FIG. 3) (Groups F and G (ADH2*2/ADH2*2), 1 mg/kg 4-MP): not reduced | Acetaldehyde AUC0-8H mean [3]: 221 µg·h/mL | Cmax mean (serum acetaldehyde) [3]: 89.2 µg/mL | Peak mean acetaldehyde concentration in the blood (FIG. 4) (all subjects with reduced or absent ALDH2 activity, 1, 3 or 5 mg/kg 4-MP): not reduced
